Measured values from ChEMBL document CHEMBL1201862, “PubChem BioAssay data set” (2004).
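Exposure lasted 48 hours, with cells grown in 96-well plates and compounds tested at five concentrations. At the GI50, growth is halved.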 Activity calls are given as the source filed them. No stated cut-off is given here; in the data, active = GI50 up to about 1.1 µM and inactive = higher. Non-standard residues stand in square brackets, D forms with d. Residues, ends and D or L forms follow the SMILES beside them. *: point of attachment. Ac5c = NC1(C(=O)O)CCCC1; Cbz = O=C(OCc1ccccc1)*; Boc = CC(C)(C)OC(=O)*; tBu = CC(C)(C)*

Legend:
Experiment in all cases: NCI anticancer screen, dose series, 48 h
ACHN = test system: ACHN
CAKI-1 = test system: CAKI-1
HCC 2998 = test system: HCC 2998
HL-60 = test system: HL-60
HOP-62 = test system: HOP-62
HOP-92 = test system: HOP-92
IGROV-1 = test system: IGROV-1
MDA-MB-231 = test system: MDA-MB-231
Malme-3M = test system: Malme-3M
NCI-H522 = test system: NCI-H522
OVCAR-4 = test system: OVCAR-4
PC-3 = test system: PC-3
RPMI-8226 = test system: RPMI-8226
SR = test system: SR
SW-620 = test system: SW-620
UACC-257 = test system: UACC-257
UACC-62 = test system: UACC-62
LXFL 529 = test system: LXFL 529
SNB-78 = test system: SNB-78

Row | SMILES | GI50 (ACHN) | GI50 (CAKI-1) | GI50 (HCC 2998) | GI50 (HL-60) | GI50 (HOP-62) | GI50 (HOP-92) | GI50 (IGROV-1) | GI50 (MDA-MB-231) | GI50 (Malme-3M) | GI50 (NCI-H522) | GI50 (OVCAR-4) | GI50 (PC-3) | GI50 (RPMI-8226) | GI50 (SR) | GI50 (SW-620) | GI50 (UACC-257) | GI50 (UACC-62) | GI50 (LXFL 529) | GI50 (SNB-78)
1 | CC(=O)/C=C/C1=C(C)CCCC1(C)CC(C)C (stereo unspecified) | 22.1 µM (inactive) | 42.8 µM (inactive) | 17.6 µM (inactive) | 11.7 µM (inactive) | 57.9 µM (inactive) | 6.73 µM (inactive) | 29.3 µM (inactive) | 70.8 µM (inactive) | 30.6 µM (inactive) | 18.4 µM (inactive) | 63.8 µM (inactive) | 35 µM (inactive) | 13.7 µM (inactive) | 16 µM (inactive) | 18.6 µM (inactive) | 22.2 µM (inactive) | 22.4 µM (inactive) | – | –
2 | CCCN1CN(C(C(=O)N[C@@H]2C(=O)N3C(C(=O)O)=C(C)CSC23)c2ccccc2)CSC1=S (stereo partly specified) | > 100 µM (inactive) | – | – | 86.9 µM (inactive) | > 100 µM (inactive) | > 100 µM (inactive) | > 100 µM (inactive) | – | > 100 µM (inactive) | 23 µM (inactive) | > 100 µM (inactive) | – | 40.9 µM (inactive) | – | – | > 100 µM (inactive) | > 100 µM (inactive) | > 100 µM (inactive) | > 100 µM (inactive)
3 | N#Cc1c(-c2ccc(Cl)cc2)cc(-c2nc3ccccc3[nH]2)nc1N | 11.1 µM (inactive) | 17.9 µM (inactive) | 4.02 µM (inactive) | 11.2 µM (inactive) | 14.4 µM (inactive) | 11 µM (inactive) | 2.39 µM (inactive) | 12.2 µM (inactive) | 16.6 µM (inactive) | 13.7 µM (inactive) | 18.6 µM (inactive) | 11 µM (inactive) | 4.22 µM (inactive) | 4.56 µM (inactive) | 15 µM (inactive) | 5.14 µM (inactive) | 7.66 µM (inactive) | – | –
4 | CN1CCN(c2ccc3c(c2)NCC(=O)N3)CC1 | > 100 µM (inactive) | > 100 µM (inactive) | > 100 µM (inactive) | > 100 µM (inactive) | > 100 µM (inactive) | > 100 µM (inactive) | > 100 µM (inactive) | > 100 µM (inactive) | > 100 µM (inactive) | > 100 µM (inactive) | > 100 µM (inactive) | > 100 µM (inactive) | > 100 µM (inactive) | > 100 µM (inactive) | > 100 µM (inactive) | > 100 µM (inactive) | > 100 µM (inactive) | – | –
5 | COc1ccc2ccccc2c1/C=C/C(=O)c1ccccc1 | 3.33 µM (inactive) | 4.8 µM (inactive) | 1.66 µM (inactive) | 1.7 µM (inactive) | 2.68 µM (inactive) | 1.69 µM (inactive) | 4.03 µM (inactive) | 2.66 µM (inactive) | 9.33 µM (inactive) | 2.46 µM (inactive) | 2.74 µM (inactive) | 4 µM (inactive) | 1.44 µM (inactive) | 1.06 µM (active) | 2.54 µM (inactive) | 4.05 µM (inactive) | 2.89 µM (inactive) | – | –
6 | COC(=O)C1(NC(=O)C(Cc2ccccc2)NC(=O)C(NC(=O)C(CCCCNC(=O)OC(C)(C)C)NC(=O)C(Cc2c[nH]c3ccccc23)NC(=O)C(Cc2ccccc2)NC(=O)OCc2ccccc2)C(C)OC(C)(C)C)CCCC1 (stereo unspecified) (Cbz-FWK(Boc)T(tBu)F[Ac5c]-OMe; configuration not given here) | > 100 µM (inactive) | > 100 µM (inactive) | > 100 µM (inactive) | > 100 µM (inactive) | 65 µM (inactive) | 68.9 µM (inactive) | 88.1 µM (inactive) | 25.9 µM (inactive) | > 100 µM (inactive) | 19 µM (inactive) | > 100 µM (inactive) | > 100 µM (inactive) | > 100 µM (inactive) | > 100 µM (inactive) | 51.6 µM (inactive) | > 100 µM (inactive) | > 100 µM (inactive) | – | –
7 | COc1ccc2nc3c([N+](=O)[O-])ccc4c3c(c2c1)N=CN4CCCN(C)C | 0.743 µM (active) | 1.27 µM (inactive) | 1.37 µM (inactive) | 2.77 µM (inactive) | 1.2 µM (inactive) | 1.99 µM (inactive) | 0.855 µM (active) | 1.37 µM (inactive) | 6.3 µM (inactive) | 1.34 µM (inactive) | 1.65 µM (inactive) | 1.21 µM (inactive) | 0.318 µM (active) | 0.125 µM (active) | 0.44 µM (active) | 3.78 µM (inactive) | 6.24 µM (inactive) | – | –
8 | COc1ccc(Nc2nc(N)c(C(=O)c3cccs3)s2)cc1 | 12.2 µM (inactive) | 5 µM (inactive) | 0.931 µM (active) | 3.56 µM (inactive) | 16.9 µM (inactive) | 21.1 µM (inactive) | 4.43 µM (inactive) | 26.2 µM (inactive) | 30.1 µM (inactive) | 5.09 µM (inactive) | 9.73 µM (inactive) | 11.4 µM (inactive) | 5.92 µM (inactive) | 0.682 µM (active) | 5.45 µM (inactive) | 9.31 µM (inactive) | 11.3 µM (inactive) | – | –
9 | O=c1[nH]c(=S)[nH]n1C(=S)n1[nH]c(=S)[nH]c1=O | > 100 µM (inactive) | > 100 µM (inactive) | > 100 µM (inactive) | 45.2 µM (inactive) | > 100 µM (inactive) | > 100 µM (inactive) | > 100 µM (inactive) | > 100 µM (inactive) | 36.7 µM (inactive) | > 100 µM (inactive) | > 100 µM (inactive) | > 100 µM (inactive) | 89.1 µM (inactive) | 41.4 µM (inactive) | > 100 µM (inactive) | > 100 µM (inactive) | > 100 µM (inactive) | – | –
10 | Cc1ccc(CN2CCN(Cc3ccc(C)o3)C(C)C2)o1 (stereo unspecified) | > 100 µM (inactive) | > 100 µM (inactive) | > 100 µM (inactive) | > 100 µM (inactive) | > 100 µM (inactive) | > 100 µM (inactive) | > 100 µM (inactive) | > 100 µM (inactive) | > 100 µM (inactive) | > 100 µM (inactive) | > 100 µM (inactive) | > 100 µM (inactive) | > 100 µM (inactive) | > 100 µM (inactive) | > 100 µM (inactive) | > 100 µM (inactive) | > 100 µM (inactive) | – | –
11 | O=c1c2ccccc2nc(-c2ccccc2)n1NC(=S)Nc1ccccc1 | > 100 µM (inactive) | > 100 µM (inactive) | – | > 100 µM (inactive) | > 100 µM (inactive) | > 100 µM (inactive) | > 100 µM (inactive) | – | > 100 µM (inactive) | > 100 µM (inactive) | > 100 µM (inactive) | – | > 100 µM (inactive) | > 100 µM (inactive) | > 100 µM (inactive) | > 100 µM (inactive) | > 100 µM (inactive) | 81.8 µM (inactive) | –
12 | CCOC(=O)C1C(=O)C=C(c2cc(C)ccc2O)CC1c1cccc(Cl)c1 (stereo unspecified) | 19.7 µM (inactive) | 30.7 µM (inactive) | 24.5 µM (inactive) | 25.8 µM (inactive) | 40.2 µM (inactive) | 13.5 µM (inactive) | 13.6 µM (inactive) | 23.9 µM (inactive) | 17.3 µM (inactive) | 12.4 µM (inactive) | 17.5 µM (inactive) | 11.5 µM (inactive) | 18.7 µM (inactive) | 5.21 µM (inactive) | 29 µM (inactive) | 2.12 µM (inactive) | 13.9 µM (inactive) | – | –
13 | C/C(=N\NC(=S)N(C)CCN(C)C(=S)N/N=C(\C)c1ccccn1)c1ccccn1 | 0.366 µM (active) | 1.78 µM (inactive) | 10.4 µM (inactive) | 0.365 µM (active) | 1.67 µM (inactive) | 2.72 µM (inactive) | 0.465 µM (active) | 0.246 µM (active) | 0.826 µM (active) | 0.731 µM (active) | 0.298 µM (active) | 0.553 µM (active) | 1.37 µM (inactive) | 0.697 µM (active) | 0.662 µM (active) | 0.774 µM (active) | 2.31 µM (inactive) | – | –
14 | CCc1nc2cc3cccnc3c(Cl)c2[nH]c1=O | 78.7 µM (inactive) | 75.7 µM (inactive) | > 100 µM (inactive) | > 100 µM (inactive) | > 100 µM (inactive) | 49.2 µM (inactive) | 71 µM (inactive) | > 100 µM (inactive) | > 100 µM (inactive) | > 100 µM (inactive) | > 100 µM (inactive) | > 100 µM (inactive) | > 100 µM (inactive) | > 100 µM (inactive) | > 100 µM (inactive) | > 100 µM (inactive) | > 100 µM (inactive) | – | –
15 | COc1cc2c(cc1OCCCC(=O)Nc1cc(C(=O)Nc3cc(C(=O)Nc4cc(C(=O)NCCCN(C)C)n(C)n4)n(C)c3)n(C)c1)N=CC1CCCN1C2=O (stereo unspecified) | 17.1 µM (inactive) | 25.1 µM (inactive) | 28.1 µM (inactive) | 2.52 µM (inactive) | 25.8 µM (inactive) | 21.3 µM (inactive) | 6.38 µM (inactive) | 34.5 µM (inactive) | 18.7 µM (inactive) | 2.28 µM (inactive) | 20.1 µM (inactive) | 23.6 µM (inactive) | 25.7 µM (inactive) | 3.76 µM (inactive) | 20.6 µM (inactive) | 19.7 µM (inactive) | 19.1 µM (inactive) | – | –
16 | Oc1cc(Cl)cc2cccnc12 | 1.38 µM (inactive) | 5 µM (inactive) | 24.5 µM (inactive) | 0.229 µM (active) | > 35 µM (inactive) | 3.25 µM (inactive) | 0.986 µM (active) | 2.19 µM (inactive) | 3.02 µM (inactive) | 0.348 µM (active) | 0.411 µM (active) | 1.26 µM (inactive) | 0.601 µM (active) | 0.449 µM (active) | 1.65 µM (inactive) | 1.38 µM (inactive) | 1.01 µM (active) | – | –
